Where “and” joins values, the source holds several entries; their conditions need not be identical. Identical values can stand only once. Like-named read-outs stand apart in the source and are kept apart here.
Legend:
Format in all cases: cell-based
NR2F6 = target: T1, NR2F6 (Homo sapiens, UniProt P10588); assay: NR2F6 agonist screening, Firefly signal cmpd/DMSO
T1 construct: expressed in transfected cells; also transient transfection
T1 sequence (P10588 1-404): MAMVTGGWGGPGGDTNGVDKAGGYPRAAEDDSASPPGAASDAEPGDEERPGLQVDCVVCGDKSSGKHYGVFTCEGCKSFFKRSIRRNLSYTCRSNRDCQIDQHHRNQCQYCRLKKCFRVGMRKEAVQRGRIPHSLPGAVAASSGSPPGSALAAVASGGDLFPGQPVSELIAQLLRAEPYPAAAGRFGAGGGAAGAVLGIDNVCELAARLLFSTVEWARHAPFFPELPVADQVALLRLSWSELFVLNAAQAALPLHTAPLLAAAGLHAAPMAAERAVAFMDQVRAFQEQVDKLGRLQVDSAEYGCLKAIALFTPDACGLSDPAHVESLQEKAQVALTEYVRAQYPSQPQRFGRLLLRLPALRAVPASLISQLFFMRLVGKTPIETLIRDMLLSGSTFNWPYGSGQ

Renilla [1] = assay: Renilla signal in NR2F6 agonist screening, cmpd/DMSO; settings: Renilla
HEK293 pGL4 = assay: Firefly_pGL signal, cmpd/DMSO (pGL4 control cells); settings: Homo sapiens
NR2F6 LBD = target: T2, NR2F6 LBD (Homo sapiens, UniProt P10588); assay: NR2F6 LBD transient transfection
T2 construct: expressed in transfected cells
T2 sequence (P10588 165-393 limits assumed): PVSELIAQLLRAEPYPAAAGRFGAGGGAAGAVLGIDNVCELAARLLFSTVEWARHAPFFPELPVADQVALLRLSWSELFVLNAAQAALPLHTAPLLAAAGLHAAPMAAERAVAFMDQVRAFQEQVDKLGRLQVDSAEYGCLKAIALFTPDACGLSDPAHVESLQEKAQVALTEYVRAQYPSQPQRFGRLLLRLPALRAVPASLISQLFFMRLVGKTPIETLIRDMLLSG
How it was run: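 LBD-transfected cells treated at 40, 10, 2 and 0.5 μM (4 replicates); cytotoxicity measured in parallel, normalized to DMSO (0%) and zero signal (100%). Higher concentrations excluded where signal loss reflected toxicity.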

Renilla [2] = assay: Renilla signal, LBD, cmpd/DMSO (NR2F6 LBD transfected cells)
[3] = read-out: Renilla F4, cmpd/DMSO (mean)
[4] = F4, read-out: Renilla, F4, cmpd/DMSO (mean)
[5] = F4, 1% FBS, read-out: Renilla, F4, 1% FBS, cmpd/DMSO (mean)
[6] = F4, 10% FBS, read-out: Renilla, F4, 10% FBS, cmpd/DMSO (mean)

**Q.** Which results are given for O=S1(=O)C[C@H](N2CCCC2)[C@@H](S(=O)(=O)c2cccs2)C1 [Compound D104]?
**A.** Firefly F4, cmpd/DMSO (mean) (NR2F6; 0.5 uM): 2.1; Firefly F4, cmpd/DMSO (mean) (NR2F6; 0.5 uM, F4): 1.7; Firefly F4, cmpd/DMSO (mean) (NR2F6; 2 uM): 4.5; Firefly F4, cmpd/DMSO (mean) (NR2F6; 2 uM, F4): 2.4; Firefly F4, cmpd/DMSO (mean) (NR2F6; 10 uM): 4.3; Firefly F4, cmpd/DMSO (mean) (NR2F6; 10 uM, F4): 6.2; Firefly F4, cmpd/DMSO (mean) (NR2F6; 40 uM): 1.0; Firefly F4, cmpd/DMSO (mean) (NR2F6; 40 uM, F4): 0.8; F4, Firefly/Renilla for S/B(F4) > 3 (NR2F6; 1% FBS, 10 uM): 3.5 and 2.6; F4, Firefly/Renilla for S/B(F4) > 3 (NR2F6; 10% FBS, 10 uM): 4.5 and 4.9; Firefly, F4/pGL4 for S/B(F4) > 3 (NR2F6; 10% FBS, 10 uM): 4.2 and 4.3; Firefly, F4, 1% FBS, cmpd/DMSO (mean) (NR2F6; F4, 1% FBS, 0.5 uM): 0.9; Firefly, F4, 1% FBS, cmpd/DMSO (mean) (NR2F6; F4, 1% FBS, 2 uM): 1.9 and 1.6; Firefly, F4, 1% FBS, cmpd/DMSO (mean) (NR2F6; F4, 1% FBS, 10 uM): 8.5 and 5.1; Firefly, F4, 1% FBS, cmpd/DMSO (mean) (NR2F6; F4, 1% FBS, 40 uM): 0.7 and 0.4; Firefly, F4, 10% FBS, cmpd/DMSO (mean) (NR2F6; F4, 10% FBS, 0.5 uM): 0.8 and 1.3; Firefly, F4, 10% FBS, cmpd/DMSO (mean) (NR2F6; F4, 10% FBS, 2 uM): 1.4 and 1.5; Firefly, F4, 10% FBS, cmpd/DMSO (mean) (NR2F6; F4, 10% FBS, 10 uM): 11 and 13; Firefly, F4, 10% FBS, cmpd/DMSO (mean) (NR2F6; F4, 10% FBS, 40 uM): 1.4 and 1.0; Activity, cmpd/DMSO (NR2F6; Table 31): 7.1; fold induction at 0.5 µM (Renilla [1]; [3]): 1.2; fold induction at 2 µM (Renilla [1]; [3]): 2; fold induction at 10 µM (Renilla [1]; [3]): 1.7; fold induction at 40 µM (Renilla [1]; [3]): 0.3; fold induction at 0.5 µM (Renilla [1]; [4]): 1.1; fold induction at 2 µM (Renilla [1]; [4]): 1.2; fold induction at 10 µM (Renilla [1]; [4]): 1.6; fold induction at 40 µM (Renilla [1]; [4]): 0.3; fold induction at 0.5 µM (Renilla [1]; [5]): 1.1; fold induction at 2 µM (Renilla [1]; [5]): 1.4; fold induction at 10 µM (Renilla [1]; [5]): 2.4; fold induction at 40 µM (Renilla [1]; [5]): 1; fold induction at 0.5 µM (Renilla [1]; [6]): 1; fold induction at 2 µM (Renilla [1]; [6]): 1.3; fold induction at 10 µM (Renilla [1]; [6]): 2.5; fold induction at 40 µM (Renilla [1]; [6]): 2.2; fold induction at 0.5 µM (HEK293 pGL4; HEK293, 0.5 uM, pGL4, read-out: Firefly pGL4, cmpd/DMSO (mean)): 1.3; fold induction at 0.5 µM (HEK293 pGL4; HEK293, 0.5 uM, read-out: Firefly pGL4, cmpd/DMSO (mean)): 1.2; fold induction at 2 µM (HEK293 pGL4; HEK293, 2 uM, pGL4, read-out: Firefly pGL4, cmpd/DMSO (mean)): 1.4; fold induction at 2 µM (HEK293 pGL4; HEK293, 2 uM, read-out: Firefly pGL4, cmpd/DMSO (mean)): 1.8; fold induction at 10 µM (HEK293 pGL4; HEK293, 10 uM, pGL4, read-out: Firefly pGL4, cmpd/DMSO (mean)): 4; fold induction at 10 µM (HEK293 pGL4; HEK293, 10 uM, read-out: Firefly pGL4, cmpd/DMSO (mean)): 2.4; fold induction at 40 µM (HEK293 pGL4; HEK293, 40 uM, pGL4, read-out: Firefly pGL4, cmpd/DMSO (mean)): 0.7; fold induction at 40 µM (HEK293 pGL4; HEK293, 40 uM, read-out: Firefly pGL4, cmpd/DMSO (mean)): 0.7; fold induction at 0.5 µM (HEK293 pGL4; HEK293, pGL4, 1% FBS, 0.5 uM, read-out: Firefly, pGL4, 1% FBS, cmpd/DMSO (mean)): 1; fold induction at 2 µM (HEK293 pGL4; HEK293, pGL4, 1% FBS, 2 uM, read-out: Firefly, pGL4, 1% FBS, cmpd/DMSO (mean)): 1; fold induction at 10 µM (HEK293 pGL4; HEK293, pGL4, 1% FBS, 10 uM, read-out: Firefly, pGL4, 1% FBS, cmpd/DMSO (mean)): 1.5; fold induction at 40 µM (HEK293 pGL4; HEK293, pGL4, 1% FBS, 40 uM, read-out: Firefly, pGL4, 1% FBS, cmpd/DMSO (mean)): 0.6; fold induction at 0.5 µM (HEK293 pGL4; HEK293, pGL4, 10% FBS, 0.5 uM, read-out: Firefly, pGL4, 10% FBS, cmpd/DMSO (mean)): 1.1; fold induction at 2 µM (HEK293 pGL4; HEK293, pGL4, 10% FBS, 2 uM, read-out: Firefly, pGL4, 10% FBS, cmpd/DMSO (mean)): 1.7; fold induction at 10 µM (HEK293 pGL4; HEK293, pGL4, 10% FBS, 10 uM, read-out: Firefly, pGL4, 10% FBS, cmpd/DMSO (mean)): 2.7; fold induction at 40 µM (HEK293 pGL4; HEK293, pGL4, 10% FBS, 40 uM, read-out: Firefly, pGL4, 10% FBS, cmpd/DMSO (mean)): 0.5; Firefly LBD, cmpd/DMSO (mean) (NR2F6 LBD; 0.5 uM): 1.3; Firefly LBD, cmpd/DMSO (mean) (NR2F6 LBD; 0.5 uM, LBD): 1.3; Firefly LBD, cmpd/DMSO (mean) (NR2F6 LBD; 2 uM): 2.9; Firefly LBD, cmpd/DMSO (mean) (NR2F6 LBD; 2 uM, LBD): 1.7; Firefly LBD, cmpd/DMSO (mean) (NR2F6 LBD; 10 uM): 1.2; Firefly LBD, cmpd/DMSO (mean) (NR2F6 LBD; 10 uM, LBD): 3.3; Firefly LBD, cmpd/DMSO (mean) (NR2F6 LBD; 40 uM): 0.2; Firefly LBD, cmpd/DMSO (mean) (NR2F6 LBD; 40 uM, LBD): 0.6; Renilla LBD, cmpd/DMSO (mean) (Renilla [2]; 0.5 uM): 1.1; Renilla LBD, cmpd/DMSO (mean) (Renilla [2]; 2 uM): 1.1; Renilla LBD, cmpd/DMSO (mean) (Renilla [2]; 10 uM): 0.6; Renilla LBD, cmpd/DMSO (mean) (Renilla [2]; 40 uM): 0.2

— patent US11377442B2, “Small molecule agonists and antagonists of NR2F6 activity” (ZANDER THERAPEUTICS, INC., priority 2016, dated 2022)
